Laboratory results reported in patent US9133230B2, “Hydrazone derivatives having potent antitumor activity toward multi-drug resistant tumor cells” (THE UNITED STATES OF AMERICA AS REPRESENTED BY THE …, priority 2011, dated 2015).

Columns and labels:
[1] = system: human breast carcinoma MCF-7; assay: MTS cytotoxicity assay, MCF-7; type: cell-based
Experimental: (§1) In order to obtain information about the growth-inhibiting action of hydrazones reported in the present invention on tumor cells, growth inhibition was assessed for the following human tumor cell lines: human myelogenous leukemia K562, human cervical adenocarcinoma HeLa, human colon adenocarcinoma Caco-2, human colon carcinoma HT-29, human colon carcinoma HCT-15, and human breast carcinoma MCF-7.
(§2) The K562, HeLa, HT-29, HCT-15, Caco-2, and MCF-7 cell lines were obtained from the American type Culture Collection (ATCC, Manassas, Va.). K562 cells were maintained in RPMI 1640 medium (Gibco/Life Technologies, Gaithersburg, Md.) containing 10% heat-inactivated fetal bovine serum (FBS) (Atlanta Biologicals, Atlanta, Ga.) and 10000 U/L penicillin and 50 mg/L streptomycin. HeLa, HT-29, HCT-15, Caco-2 and MCF-7 cells were maintained in MEM with Earl's balanced salts, 10% FBS, penicillin, and streptomycin as above. Logarithmically growing HT-29, Caco-2, and MCF-7 cells were incubated with 0.05% trypsin containing 1 mM EDTA at 37° C. for about 5 min until cells were nonadherent and formed a single cell suspension. Trypsin activity was neutralized by adding 20-fold excess of the serum-containing medium. Cells were cultured at 37° C. in an atmosphere of air and 5% CO2.
(§3) Cytotoxicity assays were conducted by tetrazolium reduction of 3-(4,5-dimethylthiazol-2-yl)-5-(3-carboxymethoxyphenyl)-2-(4-sulfophenyl)-2H-tetrazolium (MTS) with N-methylphenazonium methyl sulfate (PMS) (CellTiter Assay, Promega, Madison, Wis.). Logarithmically growing cells were plated in 0.1 mL aliquots in 96-well microtiter plates. Cells were plated at an initial density of about 5000 cells/mL and allowed to acclimatize for 24 h. Cell suspensions were treated with various dilutions of compounds in triplicate, mixed well, and allowed to incubate for 48 h at 37° C. in an atmosphere of air and 5% CO2. To the cell suspension was added 20 μL of tetrazolium reagent, the mixture was incubated for 2 h at 37° C. in an atmosphere of air and 5% CO2, and absorbance at 490 nm was read by microplate reader. Control plates with serial dilutions of cell types were counted as a control for the assay. In all cases, controls indicated a linear response versus cell number, R^2≧0.99.

[2] = system: human colon carcinoma HT-29; assay: MTS cytotoxicity assay, HT-29; type: cell-based
Experimental: as §1, §2, §3

[3] = system: human cervical adenocarcinoma HeLa; assay: MTS cytotoxicity assay, HeLa; type: cell-based; details: 48 h incubation
Experimental: as §1, §2, §3

[4] = system: human myelogenous leukemia K562; assay: MTS cytotoxicity assay, K562; type: cell-based
Experimental: as §1, §2, §3

[5] = system: human colon adenocarcinoma Caco-2; assay: MTS cytotoxicity assay, Caco-2; type: cell-based
Experimental: as §1, §2, §3

[6] = system: human colon carcinoma HCT-15; assay: MTS cytotoxicity assay, HCT-15; type: cell-based
Experimental: as §1, §2, §3

HL60-VCR = details: MDR cell line characterisation; cited from earlier work
[7] = Homo sapiens, MCF7, 48 h incubation
[8] = Homo sapiens, HT-29, 48 h incubation
[9] = Homo sapiens, K562, 48 h incubation
[10] = Homo sapiens, Caco-2, 48 h incubation
[11] = Homo sapiens, HCT-15, 48 h incubation

Row | Compound | GI50 [1, 7] [µM] | GI50 [2, 8] [µM] | GI50 ([3]; Homo sapiens, HeLa) [µM] | GI50 [4, 9] [µM] | GI50 [5, 10] [µM] | GI50 [6, 11] [µM] | GI50 ([1]; 48 h incubation) [µM] | GI50 ([2]; 48 h incubation) [µM] | GI50 [3] [µM] | GI50 ([6]; 48 h incubation) [µM] | GI50 ([4]; 48 h incubation) [µM] | GI50 ([5]; 48 h incubation) [µM] | resistance expressed by HL60-VCR (HL60-VCR) [fold]
1 | CC(=NNc1ncnc2c1ncn2[C@@H]1O[C@H](CO)C(O)C1O)c1ccncc1 (stereo partly drawn) [I-8, (2R,5R)-2-(hydroxymethyl)-5-(6-(2-(1-(pyridin-4-yl)ethylidene)hydrazinyl)-9H-purin-9-yl)tetrahydrofuran-3,4-diol] | 68 | 213 | 60 | 56 | 49.6 |  |  |  |  |  |  |  | 
2 | c1ccc(C(=NNc2ncnc3[nH]cnc23)c2ccccn2)cc1 [I-19, 6-(2-(Phenyl(pyridin-2-yl)methylene)hydrazinyl)-9H-purine] | 0.9 | 0.9 | 1.4 | 0.9 | 0.9 | < 1 |  |  |  |  |  |  | 
3 | OC[C@H]1OC(n2cnc3c(NN=Cc4ccncc4)ncnc32)[C@H](O)[C@@H]1O (stereo partly drawn) [I-11] |  |  |  |  |  |  | 70 | 79 | 56 | 71 | 58 | 11 | 
4 | Cc1ccc(C=NNc2ncnc3c2ncn3C2O[C@H](CO)[C@@H](O)[C@H]2O)s1 (stereo partly drawn) [I-15, (2R,3S,4R)-2-(hydroxymethyl)-5-(6-(2-((5-methylthiophen-2-yl)methylene)hydrazinyl)-9H-purin-9-yl)tetrahydrofuran-3,4-diol] | 16 | 16 | 4.3 | 19 | 1.8 | 5 |  |  |  |  |  |  | 
5 | CC(=NNc1ncnc2c1ncn2C1O[C@H](CO)[C@@](C)(O)[C@H]1O)c1ccccn1 (stereo partly drawn) [I-2, (2R,3S,4R)-2-(hydroxymethyl)-3-methyl-5-(6-(2-(1-(pyridin-2-yl)ethylidene)hydrazinyl)-9H-purin-9-yl)tetrahydrofuran-3,4-diol] | 13.5 | 17.6 | 21 | 11 | 23 |  |  |  |  |  |  |  | 
6 | OC[C@H]1O[C@@H](n2cnc3c(NN=C(c4ccccc4)c4ccccn4)ncnc32)C(O)C1O (stereo partly drawn) [I-5, (2R,5R)-2-(hydroxymethyl)-5-(6-(2-(phenyl(pyridin-2-yl)methylene)hydrazinyl)-9H-purin-9-yl)tetrahydrofuran-3,4-diol] | 44.9 | 52.5 | 36 | 49 | 64.5 |  |  |  |  |  |  |  | 
7 | OC[C@H]1OC(n2cnc3c(NN=Cc4cccnc4)ncnc32)[C@H](O)[C@@H]1O (stereo partly drawn) [I-10] |  |  |  |  |  |  | 14 | 18 | 18 | 22 | 22 | 0.9 | 
8 | CC(=NNc1ncnc2c1ncn2[C@@H]1O[C@H](CO)C(O)C1O)c1cccnc1 (stereo partly drawn) [I-7, (2R,5R)-2-(hydroxymethyl)-5-(6-(2-(1-(pyridin-3-yl)ethylidene)hydrazinyl)-9H-purin-9-yl)tetrahydrofuran-3,4-diol] | 93 | 144 | 25 | 45 | 63.3 |  |  |  |  |  |  |  | 
9 | OC[C@H]1OC(n2cnc3c(NN=Cc4ccccc4)ncnc32)[C@H](O)[C@@H]1O (stereo partly drawn) [I-16] |  |  |  |  |  |  | 10 | 13 | 3 | 5.5 | 15 | 7.6 | 
10 | OC[C@H]1OC(n2cnc3c(NN=C(c4ccccn4)c4ccccn4)ncnc32)[C@H](O)[C@@H]1O (stereo partly drawn) [I-13] |  |  |  |  |  |  | 0.9 | 0.8 | 0.3 | < 1 | 0.3 | 0.2 | 
11 | CC(=NNc1ncnc2c1ncn2C1O[C@H](CO)[C@@](C)(O)[C@H]1O)c1cccnc1 (stereo partly drawn) [I-3, (2R,3S,4R)-2-(hydroxymethyl)-3-methyl-5-(6-(2-(1-(pyridin-3-yl)ethylidene)hydrazinyl)-9H-purin-9-yl)tetrahydrofuran-3,4-diol] | 17 | 15 | 17 | 12 | 2.2 | 11.2 |  |  |  |  |  |  | 
12 | C(=NNc1ncnc2[nH]cnc12)c1ccc[nH]1 [I-22] |  |  |  |  |  |  | 9.2 | 6.9 | 12 | 5.6 | 7.1 | > 100 | 
13 | C[C@]1(O)C(O)[C@H](n2cnc3c(NN=C(c4ccccc4)c4ccccn4)ncnc32)O[C@@H]1CO (stereo partly drawn) [I-1, (2R,3S,5R)-2-(hydroxymethyl)-3-methyl-5-(6-(2-(phenyl(pyridin-2-yl)methylene)hydrazinyl)-9H-purin-9-yl)tetrahydrofuran-3,4-diol] | > 100 | 57.2 | 68.9 | 48.1 | 43.2 |  |  |  |  |  |  |  | 
14 | CC[C@]1(O)C[C@H]2CN(CCc3c([nH]c4ccccc34)[C@@](C(=O)OC)(c3cc4c(cc3OC)N(C=O)[C@H]3[C@@](O)(C(=O)OC)[C@H](OC(C)=O)[C@]5(CC)C=CCN6CC[C@]43[C@@H]65)C2)C1 [vincristine] |  |  |  |  |  |  |  |  |  |  |  |  | 1300
15 | C[C@@]1(O)[C@@H](CO)OC(n2cnc3c(NN=Cc4ccccn4)ncnc32)[C@@H]1O (stereo partly drawn) [I-4] |  |  |  |  |  |  | 22 | 27 | 7.6 | 3.9 | 6.8 | 7.6 | 
16 | N#Cc1ccccc1C=NNc1ncnc2c1ncn2C1O[C@H](CO)[C@@H](O)[C@H]1O (stereo partly drawn) [I-14, 2-((2-(9-((3R,4S,5R)-3,4-dihydroxy-5-(hydroxymethyl)tetrahydrofuran-2-yl)-9H-purin-6-yl)hydrazono)methyl)benzonitrile] | 1.9 | 1.2 | 0.8 | 0.7 | 0.8 | < 1 |  |  |  |  |  |  | 
17 | 6-(2-(Dipyridin-2-yl)methylene)hydrazinyl)-9-methyl-9H-purine [I-23] |  |  |  |  |  |  |  |  |  |  | 0.9 |  | 
18 | CC(=NNc1ncnc2c1ncn2[C@@H]1O[C@H](CO)C(O)C1O)c1ccccn1 (stereo partly drawn) [I-6, (2R,5R)-2-(hydroxymethyl)-5-(6-(2-(1-(pyridin-2-yl)ethylidene)hydrazinyl)-9H-purin-9-yl)tetrahydrofuran-3,4-diol] | 15 | 38 | 12 | 11 | 14 |  |  |  |  |  |  |  | 
19 | CC(=NNc1ncnc2c1ncn2C1O[C@H](CO)[C@@H](O)[C@H]1O)c1ccccc1 (stereo partly drawn) [I-17, (2R,3S,4R)-2-(hydroxymethyl)-5-(6-(2-(1-phenylethylidene)hydrazinyl)-9H-purin-9-yl)tetrahydrofuran-3,4-diol] | 3.1 | 2.6 | 1.6 | 5 | 3.1 | 4.6 |  |  |  |  |  |  | 
20 | c1ccc(C(=NNc2ncnc3[nH]cnc23)c2ccccn2)nc1 [I-20, 6-(2-(Dipyridin-2-ylmethylene)hydrazinyl)-9H-purine] |  |  |  | 0.1 |  |  |  |  |  |  |  |  | 
21 | Cc1ccc(C=NNc2ncnc3[nH]cnc23)s1 [I-21, 6-[2-((5-Methylthiophen-2-yl)methylene)hydrazinyl]-9H-purine] | 11 | 35 | 38 | 11 | 39 | 40 |  |  |  |  |  |  | 
